Here are results for 37 compounds from patent US6979686B1, “Substituted pyrazoles as p38 kinase inhibitors” (Pharmacia Corporation, priority 2001, dated 2005).

T1 sequence (Q16539 whole entry): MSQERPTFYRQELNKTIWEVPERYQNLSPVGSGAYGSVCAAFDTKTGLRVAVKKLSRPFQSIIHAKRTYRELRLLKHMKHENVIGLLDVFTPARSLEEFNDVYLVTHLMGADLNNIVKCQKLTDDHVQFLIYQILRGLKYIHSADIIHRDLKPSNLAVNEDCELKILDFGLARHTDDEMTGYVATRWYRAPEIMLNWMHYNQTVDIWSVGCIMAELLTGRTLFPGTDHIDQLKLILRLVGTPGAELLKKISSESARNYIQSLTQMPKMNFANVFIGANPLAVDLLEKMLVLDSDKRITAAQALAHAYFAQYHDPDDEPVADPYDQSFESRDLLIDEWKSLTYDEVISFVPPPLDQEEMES

One assay concerns the target T1, human p38 kinase alpha (Homo sapiens, UniProt Q16539).
T1 construct: GST (N, cleaved yes); made in house; host or cells: E. coli DH10B
The assay is described as follows: p38 kinase in vitro assay, phosphorylation of biotinylated PHAS-I with 32P-ATP. Type of assay: biochemical. As to conditions: @ 10.0 uM.
For `Cc1c(-c2ccncc2)c(-c2ccc(F)cc2)nn1CC(=O)Nc1ccccc1C(F)(F)F` [Example B-2419], the “P38 alpha kinase IC50, uM or % inhib @ conc. (uM): % inhib” value (“P38 alpha kinase IC50 … % inhib” below) stood at 86.0% @.

Take `CCc1cccc(CC)c1NC(=O)Cn1nc(-c2ccc(F)cc2)c(-c2ccncc2)c1C` [Example B-2420]: the “P38 alpha kinase IC50 … % inhib” value stood at 70.0% @.

Take `Cc1c(-c2ccncc2)c(-c2ccc(F)cc2)nn1CC(=O)Nc1c(Cl)cccc1Cl` [Example B-2421]: the “P38 alpha kinase IC50 … % inhib” value turned out to be 89.0% 2.

In the case of `Cc1c(-c2ccncc2)c(-c2ccc(F)cc2)nn1CC(=O)Nc1ccccc1Cl` [Example B-2422], the “P38 alpha kinase IC50 … % inhib” value is recorded as 90.0% @.

Turning to `Cc1cccc(NC(=O)Cn2nc(-c3ccc(F)cc3)c(-c3ccncc3)c2C)c1` [Example B-2424], the “P38 alpha kinase IC50 … % inhib” value amounted to 86.0% @.

As for `Cc1c(-c2ccncc2)c(-c2ccc(F)cc2)nn1CC(=O)Nc1cc(C(F)(F)F)cc(C(F)(F)F)c1` [Example B-2425], the “P38 alpha kinase IC50 … % inhib” value was found to be 79.0% @.

On to `Cc1c(-c2ccncc2)c(-c2ccc(F)cc2)nn1CC(=O)Nc1cccc(Br)c1` [Example B-2426], for which the “P38 alpha kinase IC50 … % inhib” value amounted to 88.0% @.

Turning to `Cc1c(-c2ccncc2)c(-c2ccc(F)cc2)nn1CC(=O)Nc1ccc(C2CCCCC2)cc1` [Example B-2427], the “P38 alpha kinase IC50 … % inhib” value was 87.0% @.

For the compound `CSc1ccccc1NC(=O)Cn1nc(-c2ccc(F)cc2)c(-c2ccncc2)c1C` [Example B-2428], the “P38 alpha kinase IC50 … % inhib” value came out at 82.0% @.

As to `Cc1c(-c2ccncc2)c(-c2ccc(F)cc2)nn1CC(=O)Nc1cccc(F)c1` [Example B-2429], the “P38 alpha kinase IC50 … % inhib” value was found to be 92.0% @.

Consider `Cc1c(-c2ccncc2)c(-c2ccc(F)cc2)nn1CC(=O)Nc1cc([N+](=O)[O-])cc([N+](=O)[O-])c1` [Example B-2430], for which the “P38 alpha kinase IC50 … % inhib” value amounted to 90.0% @.

`COc1ccc(OC)c(NC(=O)Cn2nc(-c3ccc(F)cc3)c(-c3ccncc3)c2C)c1` [Example B-2431]: the “P38 alpha kinase IC50 … % inhib” value was found to be 85.0% 2.

On to `Cc1c(-c2ccncc2)c(-c2ccc(F)cc2)nn1CC(=O)Nc1ccccc1F` [Example B-2432], for which the “P38 alpha kinase IC50 … % inhib” value was determined as 86.0% 2.

With `Cc1c(-c2ccncc2)c(-c2ccc(F)cc2)nn1CC(=O)Nc1ccccc1C(C)C` [Example B-2433], the “P38 alpha kinase IC50 … % inhib” value amounted to 94.0% @.

As to `Cc1c(-c2ccncc2)c(-c2ccc(F)cc2)nn1CC(=O)Nc1ccccc1Cc1ccccc1` [Example B-2434], the “P38 alpha kinase IC50 … % inhib” value is on record as 92.0% @.

As to `Cc1c(-c2ccncc2)c(-c2ccc(F)cc2)nn1CC(=O)Nc1ccccc1C(C)(C)C` [Example B-2435], the “P38 alpha kinase IC50 … % inhib” value is on record as 84.0% @.

On to `CCCCCCOc1ccc(NC(=O)Cn2nc(-c3ccc(F)cc3)c(-c3ccncc3)c2C)cc1` [Example B-2436], for which the “P38 alpha kinase IC50 … % inhib” value amounted to 80.0% @.

Take `Cc1c(-c2ccncc2)c(-c2ccc(F)cc2)nn1CC(=O)Nc1ccc(OCc2ccccc2)cc1` [Example B-2437]: the “P38 alpha kinase IC50 … % inhib” value is 82.0% @.

Regarding `Cc1c(-c2ccncc2)c(-c2ccc(F)cc2)nn1CC(=O)Nc1cc(F)cc(F)c1` [Example B-2438], the “P38 alpha kinase IC50 … % inhib” value is recorded as 75.0% @.

With `Cc1c(-c2ccncc2)c(-c2ccc(F)cc2)nn1CC(=O)Nc1ccc(C(F)(F)F)cc1` [Example B-2439], the “P38 alpha kinase IC50 … % inhib” value turned out to be 81.0% @.

`CCCCNS(=O)(=O)c1cccc(NC(=O)Cn2nc(-c3ccc(F)cc3)c(-c3ccncc3)c2C)c1` [Example B-2440]: the “P38 alpha kinase IC50 … % inhib” value was 77.0% @.

On to `Cc1c(-c2ccncc2)c(-c2ccc(F)cc2)nn1CC(=O)NCC(=O)Nc1ccccc1` [Example B-2441], for which the “P38 alpha kinase IC50 … % inhib” value is 86.0% @.

For `Cc1ccc(C)c(C(=O)c2ccccc2NC(=O)Cn2nc(-c3ccc(F)cc3)c(-c3ccncc3)c2C)c1` [Example B-2443], the “P38 alpha kinase IC50 … % inhib” value was determined as 84.0% @.

For `Cc1c(-c2ccncc2)c(-c2ccc(F)cc2)nn1CC(=O)Nc1ccc(OCCOc2ccccc2)cc1` [Example B-2448], the “P38 alpha kinase IC50 … % inhib” value is on record as 75.0% @.

Turning to `Cc1c(-c2ccncc2)c(-c2ccc(F)cc2)nn1CC(=O)Nc1ccccc1Oc1ccc(Cl)cc1` [Example B-2449], the “P38 alpha kinase IC50 … % inhib” value was found to be 86.0% @.

Turning to `CCOC(=O)c1cc(-c2ccc(NC(=O)Cn3nc(-c4ccc(F)cc4)c(-c4ccncc4)c3C)cc2)oc1C` [Example B-2450], the “P38 alpha kinase IC50 … % inhib” value came out at 87.0% @.

As for `Cc1c(-c2ccncc2)c(-c2ccc(F)cc2)nn1CC(=O)Nc1ccccc1C(=O)NC1CCCCC1` [Example B-2451], the “P38 alpha kinase IC50 … % inhib” value turned out to be 87.0% @.

As to `CCCCCCCOc1ccc(NC(=O)Cn2nc(-c3ccc(F)cc3)c(-c3ccncc3)c2C)cc1` [Example B-2452], the “P38 alpha kinase IC50 … % inhib” value is on record as 89.0% @.

On to `Cc1c(-c2ccncc2)c(-c2ccc(F)cc2)nn1CC(=O)Nc1ccccc1C(=O)OC(C)C` [Example B-2454], for which the “P38 alpha kinase IC50 … % inhib” value is reported as 88.0% @.

As to `Cc1c(-c2ccncc2)c(-c2ccc(F)cc2)nn1CC(=O)Nc1ccc(-n2ccc(C(F)(F)F)n2)cc1` [Example B-2455], the “P38 alpha kinase IC50 … % inhib” value came to 87.0% @.

With `Cc1c(-c2ccncc2)c(-c2ccc(F)cc2)nn1CC(=O)Nc1ccccc1C(=O)NC(C)c1ccccc1` (stereo not shown) [Example B-2456], the “P38 alpha kinase IC50 … % inhib” value is listed as 86.0% @.

Take `Cc1c(-c2ccncc2)c(-c2ccc(F)cc2)nn1CC(=O)Nc1cccc(SC(F)(F)F)c1` [Example B-2459]: the “P38 alpha kinase IC50 … % inhib” value turned out to be 82.0% @.

Turning to `Cc1c(-c2ccncc2)c(-c2ccc(F)cc2)nn1CC(=O)Nc1ccccc1SCCCc1ccccc1` [Example B-2460], the “P38 alpha kinase IC50 … % inhib” value is on record as 80.0% @.

Turning to `Cc1c(-c2ccncc2)c(-c2ccc(F)cc2)nn1CC(=O)Nc1ccc(CSc2ccc(Cl)cc2)cc1` [Example B-2461], the “P38 alpha kinase IC50 … % inhib” value is listed as 67.0% @.

The same assay, now with this note: read-out: P38 alpha kinase IC50.
A word on the IC50: it is the point on the concentration scale where inhibition reaches its midpoint. `COCC(=O)N[C@H]1CC[C@@H](C2=NN=C(c3ccc(Cl)cc3)C2c2ccncc2)CC1` (stereo partly drawn) [Example C-96, 5-cis-[4-N-(METHOXYACETYL)AMINOCYCLOHEXYL]-4-(4-PYRIDYL)-3-(4-CHLOROPHENYL)PYRAZOLE]: the 50% inhibitory concentration (IC50) came out at 77 nM.

In the case of `N[C@H]1CC[C@@H](c2[nH]nc(-c3ccc(C(F)(F)F)cc3)c2-c2ccncc2)CC1` [Example C-101, 5-cis-(4-AMINOCYCLOHEXYL)-4-(4-PYRIDYL)-3-[4-(TRIFLUOROMETHYL)PHENYL]PYRAZOLE], the IC50 came to 83 nM.

In the case of `CN(C)[C@H]1CC[C@@H](c2[nH]nc(-c3ccc(C(F)(F)F)cc3)c2-c2ccncc2)CC1` [Example C-102, 5-cis-(4-N,N-DIMETHYLAMINOCYCLOHEXYL)-4-(4-PYRIDYL)-3-[4-(TRIFLUOROMETHYL)PHENYL]PYRAZOLE], the IC50 worked out at 290 nM.
